Results as given in a melting point compilation (Tetko et al.).

Row | melting point [°C] | Compound
1 | 147 | CC(=O)c1cc(C(C)(C)C)c(O)c(C(C)(C)C)c1
2 | 6.5 | CCCCCCCCCCCCC(=O)OC
3 | 53 | CCOC(=O)CN=C(c1ccccc1)c1ccccc1
4 | 140 | CN(C)c1ccc(C=CC=O)cc1
5 | 49 to 50 | CN(C)S(C)(=O)=O
6 | 189 to 190 | NC(=O)NN=C(c1cc2ccccc2o1)c1cc2ccccc2o1
7 | 115 | CCOC(=O)c1c(SC)nn(C(=O)c2cccc(C)c2)c1C
8 | 11 to 13 | Cc1nccnc1C
9 | 107 to 108 | CC(=O)CCc1oc2c(Br)cc(Br)cc2c1-c1ccc(C)o1
10 | 201 | CC(C)(C)NC(=O)C(C(F)(F)F)C(F)(F)F
11 | 116 | C=CCSC(=O)n1c(N)c(-c2ccccc2C)c(=O)n1C(C)C
12 | 34 | CCCCCCCCCCCCC(C)O (stereo unspecified)
13 | 61 | Cc1ccc([N+](=O)[O-])cc1I
14 | 28 | CCCCCCCCCCCCCCCCCC(=O)OC(C)C
15 | 193 to 195 | CC(C)(C)c1ccc(-c2nn[nH]n2)cc1
16 | 165 | CN(C)c1ccc(C(Cl)=NO)cc1
17 | 169 to 173 | Oc1cccc2[nH]c3ccccc3c12
18 | 124 | CC(=O)C=CC(=O)O
19 | 218 to 221 | Cc1cc(C)c(NC(=O)CN(CC(=O)O)CC(=O)O)c(C)c1
20 | 33 | CC(C)Oc1ccc(S(=O)(=O)Cl)cc1
21 | -17 | Cc1ccc(Br)c(C)c1
22 | 184 | CC1=C(CC(=O)O)c2cc(F)ccc2C1=Cc1ccc(S(C)=O)cc1 (stereo unspecified)
23 | 91 to 93 | O=C(Oc1c(F)c(F)c(F)c(F)c1F)c1cc(C(F)(F)F)ccc1N1CCOCC1

Row | melting point [°C] | Compound
24 | 85 | CC(=NO)C(C)(C)O
25 | 173 to 174 | CCOc1c2cccc1Cc1cccc(c1O)Cc1cccc(c1OP(=O)(OCC)OCC)Cc1cccc(c1O)C2
26 | 32.5 | CC1CCCC(C)C1O (stereo unspecified)
27 | 36 | Cc1ccc(N)cc1I
28 | 137 | Cn1cccc1C(=O)O
29 | 30 to 34 | CCCC(CCC)C(C(=O)O)C(=O)OCC (stereo unspecified)
30 | 206 | CC1CCC2(OC1)OC1CC3C4CC=C5CC(O)CCC5(C)C4CCC3(C)C1C2C (stereo unspecified)
31 | 188 | CN(C)c1ccc(C(Br)=NNc2ccc([N+](=O)[O-])cc2)cc1
32 | 59 to 62 | Cc1nn(C(=O)OC(C)(C)C)c(C)c1C=O
33 | 70 to 73 | CC(=O)c1cc(Cl)c(C)cc1O
34 | 109 | CN(C(=S)C(=O)c1ccccc1)c1ccccc1
35 | 182 to 183 | Cc1csc2ncnc(NN)c12
36 | 95 | CCOC(=O)/C(=C\c1ccccc1)c1ccccc1[N+](=O)[O-]
37 | 315 | CCn1cc(C(=O)O)c(=O)c2cnc(N3CCCC3)nc21
38 | 131 to 133 | CC(=O)Nc1cccnc1
39 | 142 | CC(C)(C)OC(=O)N[C@H](CC(=O)O)Cc1ccncc1
40 | 283 to 284 | CC(NC(CCCNC(=N)N)C(=O)O)C(=O)O (single isomer, unassigned; (+))
41 | 175 | C#CC[C@H](NC(=O)OCC1c2ccccc2-c2ccccc21)C(=O)O
42 | 132 | COc1ccc(NCC(=O)Nc2ccc(OC)cc2)cc1
43 | 191 | CC(=Nc1ccc(N=Nc2ccccc2)cc1)c1c(O)c2ccccc2n(-c2ccccc2)c1=O
44 | 150 | CCNc1cc(=O)oc2ccccc12
45 | 161 | COc1cc(C)nc(N)n1

Continued, compound first:

Row | Compound | melting point [°C]
46 | CSc1ccc(Oc2cccc(F)c2C#N)cc1 | 68 to 71
47 | N#Cc1csc2ccc(Cl)cc12 | 121 to 122
48 | O=C1c2ccccc2CC2CCCCN12 (stereo unspecified) | 97
49 | CCN(CC)c1ccc2nc3c4ccccc4c(=O)cc-3oc2c1 | 203 to 205
50 | C#Cc1ccc2nccnc2c1 | 98
51 | N#Cc1ccc(Br)cc1Cl | 70
52 | O=c1[nH]c2ccc([N+](=O)[O-])cc2[nH]1 | 314 to 317
53 | Clc1ccccc1C(c1ccccc1)(c1ccccc1)n1ccnc1 | 147
54 | Cc1nc(C#N)cs1 | 58
55 | CCOC(=O)C(Br)C(Br)c1ccccc1 (stereo unspecified) | 77 to 79
56 | c1ccc(OCc2ccc(CCCN3CCOCC3)cc2)cc1 | 52.5
57 | CCC(C)C(N)P(=O)(O)O (stereo unspecified) | 274
58 | O=Cc1ccc2occc2c1 | 37 to 38
59 | OCC1CCN(c2ncnc3ccsc23)CC1 | 126 to 128
60 | BrCc1ccc(-n2cccn2)cc1 | 81 to 83
61 | COc1c(O)ccc2c1C(=O)N1CCc3cc4c(cc3[C@@H]1C2)OCO4 | 209
62 | O=[N+]([O-])c1cnc(Br)s1 | 88
63 | NC(=O)CCOC1CCN(Cc2ccccc2)CC1 | 73 to 75
64 | O=Cc1cccn1-c1cc(Cl)cc(Cl)c1 | 150 to 152
65 | Nc1cccc2c1C(=O)c1cccc(N)c1C2=O | 319
66 | Cn1nc(C(F)(F)F)cc1-c1ccc(S(=O)(=O)Cl)s1 | 68 to 70
67 | O=C1OC(=O)C2CCCCC12 (stereo unspecified) | 32
68 | CNCCc1c[nH]c2ccccc12 | 88

Row | Compound | melting point [°C]
69 | O=S(=O)(Cl)c1c(F)c(Br)cc(F)c1Br | 69
70 | O=C(Nc1ccc([N+](=O)[O-])cc1[N+](=O)[O-])C(F)(F)C(F)(F)C(F)(F)C(F)(F)C(F)(F)C(F)(F)C(F)(F)C(F)(F)F | 125
71 | Cn1[nH]c([N+](=O)[O-])c2c(=O)ccnc1-2 | 223
72 | NNC(=O)c1ccc(Cl)cc1Cl | 169
73 | O=[N+]([O-])c1ccc(N/N=C2\Cc3ccccc32)c([N+](=O)[O-])c1 | 203
74 | N#Cc1c(-c2ccccc2)c2c(O)[nH]n(-c3ccccc3)c-2nc1=S | 142
75 | c1ccc2c(c1)ccc1[nH]c3ccc4ccccc4c3c12 | 158
76 | COc1cccc(P(c2cccc(OC)c2)c2cccc(OC)c2)c1 | 115
77 | O=[N+]([O-])c1ccc(C(Br)C(Br)c2ccc(C(Br)C(Br)c3ccc([N+](=O)[O-])cc3[N+](=O)[O-])cc2)c([N+](=O)[O-])c1 (stereo unspecified) | 265
78 | Cn1ccc(C#N)n1 | 41.5 to 45
79 | Brc1cccc2cccnc12 | 58 to 59
80 | O=C(Cl)C1COc2ccccc2O1 (stereo unspecified) | 56 to 57
81 | Cn1c(=O)c(C2=NNC(=O)C2=CNc2cccnc2)c(O)c2ccccc21 | 281
82 | Cc1ncnc2[nH]cnc12 | 235 to 240
83 | COc1ccc2c(c1)CCCN2 | 42.5
84 | Cn1c(S)nnc1Cc1nc(-c2cnccn2)no1 | 203 to 204
85 | ClCc1ccc(Br)cc1 | 50
86 | O=C(Cl)/C=C/c1ccc(/C=C/C(=O)Cl)cc1 | 171
87 | Nc1cc(F)c(F)c(Br)c1 | 68
88 | Cc1ccc2c(ccc3cc4ccccc4cc32)c1 | 156
89 | O=C(CBr)c1ccc(-c2ccccn2)s1 | 123 to 126
90 | Cc1cc(=O)oc2cc(N)ccc12 | 227
91 | NNc1ccccn1 | 46.6
